Experiment [1] concerns the target Fibroblast growth factor receptor 3 (Homo sapiens) (UniProt P22607). The experiment can be described thus: FGFR3 (h) Upstate kinase activity assay. The note with it: Compound concentration 10.0 uM.
Experiment [2] addresses Insulin receptor (Homo sapiens) (UniProt P06213). The experiment can be described thus: IR (h) Upstate kinase activity assay. The note with it: Compound concentration 10.0 uM.
Experiment [3] deals with Serine/threonine-protein kinase Chk2 (Homo sapiens) (UniProt O96017). The experiment is described as follows: CHK2 (h) Upstate kinase activity assay. The note with it: Compound concentration 10.0 uM.
In another experiment the test system is MIA PaCa-2. The experiment can be described thus: Pancreas MIA PaCa-2 cell line MDS Pharma Services Proliferation Assay. In kind it is functional, cell-based, Homo sapiens.
Experiment [4] deals with Mitogen-activated protein kinase 9 (Homo sapiens) (UniProt P45984). The experiment is described as follows: JNK2alpha2 (h) Upstate kinase activity assay. The note with it: Compound concentration 10.0 uM.
The target of experiment [5] is T1, Aurora kinase A (Homo sapiens) (UniProt O14965).
T1 sequence (whole entry): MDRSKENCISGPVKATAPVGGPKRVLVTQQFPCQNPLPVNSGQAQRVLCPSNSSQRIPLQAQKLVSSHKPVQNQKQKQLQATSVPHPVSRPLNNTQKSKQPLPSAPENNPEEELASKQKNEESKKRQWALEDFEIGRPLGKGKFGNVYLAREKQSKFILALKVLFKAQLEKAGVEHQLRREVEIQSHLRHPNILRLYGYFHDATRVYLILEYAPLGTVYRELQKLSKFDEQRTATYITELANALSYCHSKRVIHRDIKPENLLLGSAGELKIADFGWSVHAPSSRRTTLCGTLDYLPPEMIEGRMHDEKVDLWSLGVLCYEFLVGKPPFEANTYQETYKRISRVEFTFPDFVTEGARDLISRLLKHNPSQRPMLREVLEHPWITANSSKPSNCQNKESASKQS
The experiment can be described thus: Aurora A (h) Upstate kinase activity assay. The note with it: Compound concentration 10.0 uM.

For experiment [6], the target named is T2, MAP kinase-activated protein kinase 5 (Homo sapiens) (UniProt Q8IW41).
T2 sequence (whole entry): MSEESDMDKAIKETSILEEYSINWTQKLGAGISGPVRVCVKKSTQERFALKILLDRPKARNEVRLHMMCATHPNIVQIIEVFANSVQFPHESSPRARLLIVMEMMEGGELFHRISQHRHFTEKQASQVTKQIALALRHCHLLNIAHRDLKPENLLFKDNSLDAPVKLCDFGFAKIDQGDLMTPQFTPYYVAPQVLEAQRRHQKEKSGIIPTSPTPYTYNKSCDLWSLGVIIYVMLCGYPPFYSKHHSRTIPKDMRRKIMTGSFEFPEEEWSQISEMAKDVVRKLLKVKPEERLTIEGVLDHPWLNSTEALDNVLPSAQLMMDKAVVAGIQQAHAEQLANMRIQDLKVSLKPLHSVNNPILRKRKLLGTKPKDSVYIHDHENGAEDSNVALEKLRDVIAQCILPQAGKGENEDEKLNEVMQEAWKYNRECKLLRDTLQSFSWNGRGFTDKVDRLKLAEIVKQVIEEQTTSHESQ
The experiment can be described thus: PRAK (h) Upstate kinase activity assay. The note with it: Compound concentration 10.0 uM.

Experiment [7] concerns the target Ribosomal protein S6 kinase alpha-5 (Homo sapiens) (UniProt O75582). The experiment can be described thus: MSK1 (h) Upstate kinase activity assay. The note with it: Compound concentration 10.0 uM.
A further experiment relates to SK-MEL-5. The experiment is described as follows: Melanoma SK-MEL-5 cell line MDS Pharma Services Proliferation Assay. In kind it is functional, cell-based, Homo sapiens.
Experiment [8] concerns the target T3, Tyrosine-protein kinase receptor TYRO3 (Homo sapiens) (UniProt Q06418).
T3 sequence (whole entry): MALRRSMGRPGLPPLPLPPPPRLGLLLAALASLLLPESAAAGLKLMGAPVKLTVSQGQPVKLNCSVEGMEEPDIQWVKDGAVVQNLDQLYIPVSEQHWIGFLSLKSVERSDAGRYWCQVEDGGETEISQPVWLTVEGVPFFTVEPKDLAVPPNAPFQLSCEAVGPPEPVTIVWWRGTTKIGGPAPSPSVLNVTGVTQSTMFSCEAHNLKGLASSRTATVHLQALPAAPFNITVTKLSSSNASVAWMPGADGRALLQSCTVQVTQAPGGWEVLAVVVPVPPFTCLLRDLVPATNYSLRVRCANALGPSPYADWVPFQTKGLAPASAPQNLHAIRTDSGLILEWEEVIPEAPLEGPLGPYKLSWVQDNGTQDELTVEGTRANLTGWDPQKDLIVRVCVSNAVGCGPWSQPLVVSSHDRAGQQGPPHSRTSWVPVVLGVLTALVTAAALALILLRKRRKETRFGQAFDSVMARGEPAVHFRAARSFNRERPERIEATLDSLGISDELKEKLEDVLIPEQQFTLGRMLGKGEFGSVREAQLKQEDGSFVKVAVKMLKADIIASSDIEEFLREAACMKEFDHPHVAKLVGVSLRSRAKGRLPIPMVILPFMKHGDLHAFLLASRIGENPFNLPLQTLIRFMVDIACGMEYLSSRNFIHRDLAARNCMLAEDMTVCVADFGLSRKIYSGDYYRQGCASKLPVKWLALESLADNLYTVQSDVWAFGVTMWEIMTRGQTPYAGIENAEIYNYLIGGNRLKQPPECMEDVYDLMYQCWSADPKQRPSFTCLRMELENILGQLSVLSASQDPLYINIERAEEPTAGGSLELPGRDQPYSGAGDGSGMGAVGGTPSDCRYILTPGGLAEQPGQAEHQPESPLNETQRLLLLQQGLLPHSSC
The experiment is described as follows: Rse (h) Upstate kinase activity assay. The note with it: Compound concentration 10.0 uM.

The target in experiment [9] is Macrophage colony-stimulating factor 1 receptor (Homo sapiens) (UniProt P07333). The experiment is described as follows: Fms (h) Upstate kinase activity assay. The note with it: Compound concentration 10.0 uM.
The target of experiment [10] is Sigma non-opioid intracellular receptor 1 (Homo sapiens, UniProt Q99720). The experiment is described as follows: GPCRScan assay: inhibition of Sigma 1. More on the design: radioligand conc. used [nm] 4.0 – 5.0, parental cells HEKT.
For experiment [11], the target named is Cyclin-dependent kinase 3 (Homo sapiens) (UniProt Q00526). The experiment can be described thus: CDK3/ cyclin E (h) Upstate kinase activity assay. The note with it: Compound concentration 10.0 uM.
The target of experiment [12] is CDK7/Cyclin H/MNAT1 (Homo sapiens) (UniProt P51946+P50613+P51948). The experiment is described as follows: CDK7/ cyclin H/ MATI (h) Upstate kinase activity assay. The format is protein-complex assay. The note with it: Compound concentration 10.0 uM.
The target in experiment [13] is Alpha-1D adrenergic receptor (Homo sapiens) (UniProt P25100). The note with it: Compound concentration 10.0 uM.
The subject of experiment [14] is Epidermal growth factor receptor (Homo sapiens), P00533 [UNDEFINED MUTATION]. The note with it: Compound concentration 100.0 nM.

One may read the inhibition as the relative decrease from the control value, in per cent. One may read the IC50 as the concentration needed to halve the response being measured. The low end stands for higher potency, the high end for lower potency. Usually TGI stands for the concentration at which net growth stops. As usually defined, the Ki is the dissociation constant of the complex between target and ligand, obtained from inhibition or displacement. What is called residual activity is the share of the control activity or signal that is left under treatment.

Bounds are passed on as bounds.

Sequence of Sigma non-opioid intracellular receptor 1 (Q99720 whole entry): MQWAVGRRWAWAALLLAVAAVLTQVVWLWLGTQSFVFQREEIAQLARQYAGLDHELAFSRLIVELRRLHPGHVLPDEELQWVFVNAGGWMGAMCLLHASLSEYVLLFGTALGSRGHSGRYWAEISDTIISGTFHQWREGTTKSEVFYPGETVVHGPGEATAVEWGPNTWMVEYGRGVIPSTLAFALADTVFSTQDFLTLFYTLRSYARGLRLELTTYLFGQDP
Sequence of Epidermal growth factor receptor (Homo sapiens), P00533 [UNDEFINED MUTATION] (P00533 whole entry, looked up, change not shown): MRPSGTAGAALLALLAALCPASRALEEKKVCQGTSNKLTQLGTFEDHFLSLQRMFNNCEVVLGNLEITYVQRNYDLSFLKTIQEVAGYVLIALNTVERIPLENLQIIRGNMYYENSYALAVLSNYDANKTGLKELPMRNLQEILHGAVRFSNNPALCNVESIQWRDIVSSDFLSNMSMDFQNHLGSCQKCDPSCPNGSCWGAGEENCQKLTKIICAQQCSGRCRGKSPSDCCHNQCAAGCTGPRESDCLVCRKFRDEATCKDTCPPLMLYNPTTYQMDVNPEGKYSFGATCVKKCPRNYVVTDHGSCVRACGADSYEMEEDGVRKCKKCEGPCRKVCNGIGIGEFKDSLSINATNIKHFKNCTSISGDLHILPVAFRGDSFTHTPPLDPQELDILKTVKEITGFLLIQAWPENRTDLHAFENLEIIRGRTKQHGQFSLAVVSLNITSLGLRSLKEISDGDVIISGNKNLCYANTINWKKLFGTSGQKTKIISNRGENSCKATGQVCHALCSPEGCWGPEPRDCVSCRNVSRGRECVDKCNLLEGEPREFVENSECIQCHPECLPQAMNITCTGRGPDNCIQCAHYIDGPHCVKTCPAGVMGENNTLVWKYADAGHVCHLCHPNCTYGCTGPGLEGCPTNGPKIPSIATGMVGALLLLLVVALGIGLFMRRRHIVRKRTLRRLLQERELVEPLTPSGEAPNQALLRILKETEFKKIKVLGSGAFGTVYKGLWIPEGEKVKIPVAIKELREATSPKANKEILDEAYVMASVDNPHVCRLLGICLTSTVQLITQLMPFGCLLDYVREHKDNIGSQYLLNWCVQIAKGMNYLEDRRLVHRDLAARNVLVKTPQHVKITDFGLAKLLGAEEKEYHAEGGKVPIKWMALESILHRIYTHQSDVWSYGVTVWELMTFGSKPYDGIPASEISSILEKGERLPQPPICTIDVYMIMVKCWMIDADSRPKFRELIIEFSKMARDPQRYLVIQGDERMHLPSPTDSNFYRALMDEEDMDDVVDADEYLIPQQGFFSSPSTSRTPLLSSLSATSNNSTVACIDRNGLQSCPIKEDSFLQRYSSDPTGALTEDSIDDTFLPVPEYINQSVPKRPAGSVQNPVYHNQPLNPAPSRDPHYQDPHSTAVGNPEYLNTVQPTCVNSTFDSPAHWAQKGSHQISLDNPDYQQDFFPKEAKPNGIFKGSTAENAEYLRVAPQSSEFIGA
Sequence of Fibroblast growth factor receptor 3 (Homo sapiens) (P22607 23-806 limits assumed): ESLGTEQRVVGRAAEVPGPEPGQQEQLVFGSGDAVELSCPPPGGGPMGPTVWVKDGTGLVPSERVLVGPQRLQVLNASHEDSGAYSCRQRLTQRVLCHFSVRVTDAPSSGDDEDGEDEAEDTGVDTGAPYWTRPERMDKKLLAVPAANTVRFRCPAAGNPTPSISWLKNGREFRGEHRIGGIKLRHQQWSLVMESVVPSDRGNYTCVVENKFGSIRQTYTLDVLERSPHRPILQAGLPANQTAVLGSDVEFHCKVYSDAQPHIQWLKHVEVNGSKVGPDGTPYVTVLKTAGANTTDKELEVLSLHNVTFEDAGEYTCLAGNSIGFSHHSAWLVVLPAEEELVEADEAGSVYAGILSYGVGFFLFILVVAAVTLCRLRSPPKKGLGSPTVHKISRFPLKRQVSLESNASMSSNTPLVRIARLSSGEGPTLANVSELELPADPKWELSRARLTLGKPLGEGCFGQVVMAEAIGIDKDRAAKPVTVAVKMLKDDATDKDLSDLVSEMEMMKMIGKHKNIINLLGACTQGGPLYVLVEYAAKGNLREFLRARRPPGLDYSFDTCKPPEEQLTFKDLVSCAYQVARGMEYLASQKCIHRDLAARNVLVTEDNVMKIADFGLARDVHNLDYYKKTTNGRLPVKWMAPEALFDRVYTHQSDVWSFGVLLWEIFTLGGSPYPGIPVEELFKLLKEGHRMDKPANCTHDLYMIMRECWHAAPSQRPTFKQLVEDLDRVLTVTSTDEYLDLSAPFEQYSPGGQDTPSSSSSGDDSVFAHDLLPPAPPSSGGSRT
Sequence of Cyclin-dependent kinase 3 (Homo sapiens) (Q00526 whole entry, looked up): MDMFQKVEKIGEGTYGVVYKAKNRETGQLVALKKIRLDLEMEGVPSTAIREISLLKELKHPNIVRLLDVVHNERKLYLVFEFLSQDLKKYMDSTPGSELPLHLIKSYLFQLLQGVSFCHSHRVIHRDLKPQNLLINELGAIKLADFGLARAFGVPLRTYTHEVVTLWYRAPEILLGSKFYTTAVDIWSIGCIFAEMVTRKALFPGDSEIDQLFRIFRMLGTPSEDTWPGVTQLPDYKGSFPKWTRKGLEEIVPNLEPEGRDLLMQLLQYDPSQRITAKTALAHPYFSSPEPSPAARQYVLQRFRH
Sequence of Serine/threonine-protein kinase Chk2 (Homo sapiens) (O96017 whole entry): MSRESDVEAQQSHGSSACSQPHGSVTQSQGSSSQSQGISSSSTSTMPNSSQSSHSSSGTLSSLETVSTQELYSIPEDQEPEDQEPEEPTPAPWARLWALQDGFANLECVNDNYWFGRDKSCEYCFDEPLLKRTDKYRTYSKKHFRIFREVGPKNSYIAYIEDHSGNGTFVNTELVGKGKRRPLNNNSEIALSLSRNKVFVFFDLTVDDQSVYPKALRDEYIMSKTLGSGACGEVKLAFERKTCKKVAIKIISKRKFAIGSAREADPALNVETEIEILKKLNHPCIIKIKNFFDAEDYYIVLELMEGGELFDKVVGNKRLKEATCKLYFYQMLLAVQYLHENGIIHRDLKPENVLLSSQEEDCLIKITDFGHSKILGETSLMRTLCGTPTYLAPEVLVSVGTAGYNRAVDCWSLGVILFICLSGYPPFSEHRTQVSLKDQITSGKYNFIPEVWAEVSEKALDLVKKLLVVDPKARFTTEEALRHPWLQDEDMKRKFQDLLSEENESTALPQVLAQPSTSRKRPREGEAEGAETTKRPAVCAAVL
Sequence of Mitogen-activated protein kinase 9 (Homo sapiens) (P45984 whole entry, looked up): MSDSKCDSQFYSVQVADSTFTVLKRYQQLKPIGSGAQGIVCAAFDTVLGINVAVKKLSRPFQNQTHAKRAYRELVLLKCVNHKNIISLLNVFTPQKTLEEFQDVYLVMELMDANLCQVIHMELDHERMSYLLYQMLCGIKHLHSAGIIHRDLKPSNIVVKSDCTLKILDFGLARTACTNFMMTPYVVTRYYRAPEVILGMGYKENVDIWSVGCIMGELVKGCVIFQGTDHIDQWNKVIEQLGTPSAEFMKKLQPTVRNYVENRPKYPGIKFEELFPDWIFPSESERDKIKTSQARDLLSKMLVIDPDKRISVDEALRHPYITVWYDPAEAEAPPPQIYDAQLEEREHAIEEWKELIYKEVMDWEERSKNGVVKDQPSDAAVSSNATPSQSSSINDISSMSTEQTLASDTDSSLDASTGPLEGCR
Sequence of Insulin receptor (Homo sapiens) (P06213 28-758 limits assumed): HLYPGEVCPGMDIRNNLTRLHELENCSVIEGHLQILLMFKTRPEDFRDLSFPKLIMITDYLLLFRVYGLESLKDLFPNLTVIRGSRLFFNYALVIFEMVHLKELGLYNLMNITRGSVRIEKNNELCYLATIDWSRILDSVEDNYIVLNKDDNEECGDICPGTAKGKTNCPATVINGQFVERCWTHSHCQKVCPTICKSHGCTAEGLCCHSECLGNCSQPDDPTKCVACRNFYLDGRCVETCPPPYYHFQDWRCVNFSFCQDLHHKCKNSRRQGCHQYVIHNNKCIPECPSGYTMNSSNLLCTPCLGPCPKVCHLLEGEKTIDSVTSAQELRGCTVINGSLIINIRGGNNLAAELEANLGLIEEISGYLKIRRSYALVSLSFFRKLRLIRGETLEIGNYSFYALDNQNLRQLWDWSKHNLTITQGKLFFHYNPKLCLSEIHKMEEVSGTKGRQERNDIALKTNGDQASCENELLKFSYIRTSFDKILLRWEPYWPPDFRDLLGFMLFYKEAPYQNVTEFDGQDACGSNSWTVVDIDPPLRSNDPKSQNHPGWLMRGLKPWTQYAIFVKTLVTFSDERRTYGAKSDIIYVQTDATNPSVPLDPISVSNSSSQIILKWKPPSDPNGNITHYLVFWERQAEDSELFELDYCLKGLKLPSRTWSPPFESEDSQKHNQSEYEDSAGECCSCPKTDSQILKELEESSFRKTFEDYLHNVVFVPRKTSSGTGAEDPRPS
Sequence of Insulin receptor (Homo sapiens) (P06213 763-1382 limits assumed): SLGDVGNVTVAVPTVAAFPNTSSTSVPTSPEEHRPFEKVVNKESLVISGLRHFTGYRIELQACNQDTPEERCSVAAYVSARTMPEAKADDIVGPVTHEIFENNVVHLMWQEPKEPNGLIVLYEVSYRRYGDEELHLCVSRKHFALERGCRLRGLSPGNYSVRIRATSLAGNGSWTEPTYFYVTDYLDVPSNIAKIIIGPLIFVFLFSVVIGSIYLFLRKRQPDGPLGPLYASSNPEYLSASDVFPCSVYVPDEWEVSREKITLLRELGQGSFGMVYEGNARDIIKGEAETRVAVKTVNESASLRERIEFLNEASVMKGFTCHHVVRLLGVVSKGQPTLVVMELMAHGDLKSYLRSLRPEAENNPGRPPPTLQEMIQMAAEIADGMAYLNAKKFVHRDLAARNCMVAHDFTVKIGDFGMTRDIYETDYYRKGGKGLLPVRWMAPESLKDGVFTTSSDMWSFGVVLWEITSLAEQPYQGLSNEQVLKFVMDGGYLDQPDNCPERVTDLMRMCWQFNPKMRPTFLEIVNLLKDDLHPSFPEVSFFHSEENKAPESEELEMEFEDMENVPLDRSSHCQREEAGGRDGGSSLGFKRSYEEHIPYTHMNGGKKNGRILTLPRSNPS

Regarding `Cc1c[nH]c2nccc(Oc3c(F)cc(Nc4cc(Cl)nc(N)n4)cc3F)c12` [BAY-549], the inhibition was 12% in experiment [1]; 59% in experiment [2]; 64% in experiment [3]; 16% in experiment [4]; 77% in experiment [5]; 36% in [6]. Besides, the inhibition was 86% in [7]; 15% in experiment [8]; 64% in experiment [9]; 33% in experiment [11]; 57% in experiment [12]. Further, the entries for the “Mean % growth (n = 2) for 10.0 µM probe concentration” value in the experiment on MIA PaCa-2 and in the experiment with SK-MEL-5 (± SEM 6 % growth) were 45% and 65%, respectively. In addition, the IC50 in the experiment with MIA PaCa-2 (Homo sapiens, MIA PaCa-2) came out at 8.9 µM; with SK-MEL-5 (Homo sapiens, SK-MEL-5) it was 16 µM. In addition, the total growth inhibition concentration (TGI) in the experiment with MIA PaCa-2 (Homo sapiens, MIA PaCa-2) is 48 µM; in the experiment with SK-MEL-5 (Homo sapiens, SK-MEL-5), 50 µM. Further, the CC50 in the experiment with MIA PaCa-2 (Homo sapiens, MIA PaCa-2, read-out: LC50 (the source's name)) was above 100 µM; in the experiment on SK-MEL-5 (Homo sapiens, SK-MEL-5, read-out: LC50 (the source's name)), above 100 µM. In addition, the “Mean % growth (n = 2) for 0.1 µM probe concentration” value came out at 98% in the experiment on MIA PaCa-2 (± SEM 1 % growth) and 89% in the experiment with SK-MEL-5 (± SEM 8 % growth). Besides, the “Mean % growth (n = 2) for 0.01 µM probe concentration” value in the experiment with MIA PaCa-2 (± SEM 3 % growth) is given as 95%; in the experiment with SK-MEL-5 (± SEM 3 % growth), 106%. In addition, the results for the “Mean % growth (n = 2) for 1.0 µM probe concentration” value in the experiment on MIA PaCa-2 (± SEM 3 % growth) and in the experiment with SK-MEL-5 (± SEM 3 % growth) were 88% and 98%, respectively. The figures for the “Mean % growth (n = 2) for 100.0 µM probe concentration” value in the experiment on MIA PaCa-2 (± SEM 5 % growth) and in the experiment on SK-MEL-5 (± SEM 1 % growth) were -23% and -32%, respectively. Moreover, the Ki in [10] came out at 6.77 µM.

Regarding `Cn1cc(Cl)c2c(Oc3c(F)cc(Nc4cc(Cl)nc(N)n4)cc3F)ccnc21` [BAY-4900], the inhibition in experiment [13] is -6.73%. In addition, in [14], the residual activity is 94%.

These data come from ChEMBL document CHEMBL4507274 (2021).
